Reference: ChEMBL document CHEMBL3044796, “Design, synthesis, and biologic evaluation of some novel N-arylpyrazole derivatives as cytotoxic agents” (Med Chem Res, 2013)

Tests used:
BGC-823 = experiment: Cytotoxicity against human BGC823 after 48 hrs by MTT assay; format: functional, cell-based; conditions: BGC-823, 48 h
HL-60 = experiment: Cytotoxicity against human HL60 after 48 hrs by MTT assay; format: functional, cell-based; conditions: HL-60, 48 h
Bel-7402 [1] = experiment: Cytotoxicity against human Bel7402 after 48 hrs by MTT assay; format: functional, cell-based; conditions: Bel-7402, 48 h
KB = experiment: Cytotoxicity against human KB after 48 hrs by MTT assay; format: functional, cell-based
Bel-7402 [2] = experiment: Ratio of cisplatin IC50 to compound IC50 for human Bel7402 cells; format: functional

Compound: O=[N+]([O-])c1ccc(-n2cc(-c3cc(C(F)(F)F)cc(C(F)(F)F)c3)cn2)cc1
- IC50 (BGC-823): 18.5 µM
- IC50 (HL-60): 11.4 µM
- IC50 (Bel-7402 [1]): 7.39 µM
- IC50 (KB): 12 µM

Compound: O=[N+]([O-])c1ccc(-c2cnn(-c3ccc([N+](=O)[O-])cc3)c2)cc1
- IC50 (BGC-823): 11.9 µM
- IC50 (HL-60): 8.78 µM
- IC50 (Bel-7402 [1]): 9.48 µM
- IC50 (KB): 8.4 µM

Compound: O=[N+]([O-])c1ccc(-n2cc(-c3ccc(C(F)(F)F)cc3)cn2)cc1
- IC50 (BGC-823): 13.8 µM
- IC50 (HL-60): 17.3 µM
- IC50 (Bel-7402 [1]): 7.15 µM
- IC50 (KB): 21.3 µM

Compound: CCCCCCCCOc1cc(-c2c(C)nn(-c3ccc([N+](=O)[O-])cc3)c2C)cc(-c2c(C)nn(-c3ccc([N+](=O)[O-])cc3)c2C)c1
- Ratio IC50 (Bel-7402 [2]): 1.5
- IC50 (BGC-823): 8.4 µM
- IC50 (HL-60): 7.91 µM
- IC50 (Bel-7402 [1]): 5.22 µM
- IC50 (KB): 6.31 µM

Compound: O=[N+]([O-])c1ccc(-n2cc(-c3ccncc3)cn2)cc1
- IC50 (BGC-823): 20.8 µM
- IC50 (HL-60): 17.8 µM
- IC50 (Bel-7402 [1]): 23.2 µM
- IC50 (KB): 19.2 µM

Compound: Cc1nn(-c2ccc([N+](=O)[O-])cc2)c(C)c1-c1cccc(-c2c(C)nn(-c3ccc([N+](=O)[O-])cc3)c2C)c1
- IC50 (BGC-823): 11.9 µM
- IC50 (HL-60): 10.6 µM
- IC50 (Bel-7402 [1]): 11.8 µM
- IC50 (KB): 10.1 µM

Compound: Cc1nn(-c2ccc([N+](=O)[O-])cc2)c(C)c1-c1ccccc1-c1c(C)nn(-c2ccc([N+](=O)[O-])cc2)c1C
- IC50 (BGC-823): 25.4 µM
- IC50 (HL-60): 16.2 µM
- IC50 (Bel-7402 [1]): 19.9 µM
- IC50 (KB): 25.6 µM
